Experimental data from patent US5242945A, “Tetronic and thiotetronic acid derivatives as phospholipase A2 inhibitors” (American Home Products Corporation, priority 1991, dated 1993).
Like-named read-outs stand apart in the source and are kept apart here.

What was measured:
[1] = target: T1, human platelet PLA2 (Homo sapiens, UniProt P14555); test: in vitro isolated phospholipase A2 assay, human platelet PLA2; format: biochemical; conditions: at 10 μM; + values given without explanation; read-out: % Inhibition HP (human platelet)
T1 construct: platelet acid extract PLA2; from tissue; host or cells: human platelets, semipurified acid extract
T1 sequence (P14555 21-144): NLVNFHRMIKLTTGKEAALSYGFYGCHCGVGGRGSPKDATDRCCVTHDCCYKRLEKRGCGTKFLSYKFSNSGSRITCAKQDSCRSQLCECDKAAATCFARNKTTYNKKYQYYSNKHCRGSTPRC
Method: (§1) The compounds of the invention are tested in an in vitro isolated phospholipase A2 assay to determine the ability of the test compounds to inhibit the release of arachidonic acid from an arachidonic acid-containing substrate by the action of phospholipase A2 enzyme from human and non-human sources.
(§2) Into a 15 mL polypropylene tube are added the following:
(§3) ^3 H-AA E. coli substrate^1
(§4) Tris-HCl (0.5 M) pH 7.5^3
(§5) PLA2 25 Volume yielding 12%
(§6) 100 hydrolysis in 10 min.
(§7) *pre-incubate at room temperature 30 min prior to substrate addition.
(§8) ^6 Two human PLA2 enzymes are used: a) Semipurified human
(§9) platelet acid extract PLA2 (in 10 mM sodium acetate buffer, pH 4.5).
(§10) Remove protein precipitate by centrifugation at about 2200 rpm for 10
(§11) minutes. b) Purified human synovial fluid.
(§12) Incubate the 100 μL reaction mixture for 10 minutes at 37° C. in a shaking water bath. The reaction is terminated by the addition of 2 mL tetrahydrofuran, followed by vortexing. NH2 columns (100 μg/mL--Analytichem International) are conditioned with 0.5 mL tetrahydrofuran followed by 0.5 mL tetrahydrofuran/water (2 mL:0.1 mL, v/v).
(§13) The sample is loaded onto the columns and slowly drawn through them. The hydrolyzed arachidonic acid retained in the columns is eluted therefrom with 1 mL tetrahydrofuran/glacial acetic acid (2%). The arachidonic acid is transferred to scintillation vials and quantitated by β-counting analysis. A "total counts" sample is prepared by pipetting 25 μL ^3 H-arachidonate E. coli directly into a scintillation vial to which is added 1 mL tetrahydrofuran. 10 mL aquasol (scintillation cocktail) is added to all samples.

[2] = target: T2, human synovial fluid PLA2 (Homo sapiens, UniProt P14555); test: in vitro isolated phospholipase A2 assay, human synovial fluid PLA2; format: biochemical; conditions: at 10 μM; + values given without explanation; read-out: % Inhibition HSF (human synovial fluid)
T2 construct: Purified human synovial fluid; from tissue; host or cells: human synovial fluid
T2 sequence (P14555 21-144): T1 sequence (P14555 21-144)
Method: as §1, §2, §3, §4, §5, §6, §7, §8, §9, §10, §11, §12, §13

[3] = system: cyclooxygenase (PGE2); test: resident murine peritoneal macrophage assay, PGE2; format: cell-based, mouse (Swiss Webster); conditions: for inhibition at 0.5 µM / inhibition at 1 µM: read-out: PGE2 zymosan % Inhibition
Method: (§14) The ability of the compounds of the invention to act as inhibitors of the enzymes 5-lipoxygenase and cyclooxygenase is measured in the resident murine peritoneal macrophage assay.
Resident peritoneal macrophages are collected from female Swiss Webster mice (49 days old, 20-25 gms, Buckshire) by lavaging with 7-8 ml Hanks Balanced Salt Solution (HBSS) without Ca^++ and Mg^++ (GIBCO). The lavage fluid from several mice is pooled and centrifuged at 4° C. for 10 minutes at 400 xg. The cell pellet is resuspended in Medium 199 (GIBCO) with HEPES buffer containing 100 μg/ml gentamicin. Two ml of the cell suspension (4×10^6 cells) are then plated on 35 mm culture dishes (Nunc).
A macrophage monolayer is established after a 1-1.5 hour incubation of the cells at 37° C. in an atmosphere of […] and 5% CO2. The monolayers are washed 2× with 2 ml HBDSS, containing Ca^++ and Mg^++ after which 2 ml Medium 199 supplemented with 10% freshly thawed heat-inactivated fetal bovine serum and 100 μg/ml gentamicin is added for an overnight incubation.
(§15) Residual serum and cellular debris are removed from the monolayers by washing 3× with 2 ml HBSS containing Ca^++ and Mg^++. Macrophages are preincubated for 5 minutes with 1 ml serum-free M199 containing 10 μl dimethyl sulfoxide (DMSO) vehicle or test compound prior to cell activation with zymosan ([…]) or arachidonic acid (AA) (2 μM). After 2 hours, the supernatants are removed and either assayed for LTC4 and PGE2 by radioimmunoassay (RIA) directly or stored at -20° C. In all cases, results are expressed as ng metabolite/4×10^6 cells.
(§16) Raw data (dpm) may be stored directly onto an "Autostart" tape using the HP85 in room C-096. The raw data are converted to ng metabolite/4-10^6cells using the standard curve by a "RIANAL" program (HP85) or a "NONLIN" program (HP9816). Results are then expressed as percent inhibition of zymosan induced, leukotriene or prostaglandin synthesis (control) using the equation: [formula]

[4] = system: 5-lipoxygenase (LTC4); test: resident murine peritoneal macrophage assay, LTC4; format: cell-based, mouse (Swiss Webster)
Method: as §14
Resident peritoneal macrophages are collected from female Swiss Webster mice (49 days old, 20-25 gms, Buckshire) by lavaging with 7-8 ml Hanks Balanced Salt Solution (HBSS) without Ca^++ and Mg^++ (GIBCO). The lavage fluid from several mice is pooled and centrifuged at 4° C. for 10 minutes at 400 xg.
as §15, §16

[5] = system: TPA-induced ear edema; test: 12-o-tetradecanoylphorbol acetate (TPA)-induced murine ear edema assay; format: in vivo, mouse (Swiss Webster); conditions: TPA; topical, 200 μg, vehicle acetone
Method: The ability of the compounds of the invention to inhibit inflammatory responses is examined in the in vivo arachidonic acid (AA)/12-o-tetradecanoylphorbol acetate (TPA)-induced murine ear edema assay.
Swiss Webster female mice (Buckshire), approximately 8 weeks old are placed into plastic boxes in groups of six. Eight groups of mice receive AA topically on the right ear, and another 8 groups receive TPA topically on the right ear. AA and TPA are dissolved in acetone at concentrations of 100 mg/ml and 100 μg/ml respectively. The phlogistics are applied to the right ear by the means of an automatic pipet. Volumes of 10 μl are applied to the inner and outer surfaces of the ear. Each mouse receives either 2 mg/ear AA or 2 μg/ear TPA. The left ear (control) receives acetone delivered in the same manner. Topical and subcutaneous dosing regimens are as follows 1) drugs are given 30 minutes prior to AA treatment and 2) drugs are given 30 minutes after treatment with TPA.
Measurements are taken with Oditest calipers, 0-10 mm with 0.01 graduations. The right and left ears are measured after 1 hr AA-induced inflammation and 4 hours after TPA-induced inflammation.
The difference between right and left ear thickness is calculated and the significance is determined by a one way analysis of variance with Dunnett's comparisons to control (P=0.05). Drug effects are expressed as a percent change from control values: [formula]

[6] = Mus musculus, Peritoneal macrophage, zymosan stimulation
[7] = Mus musculus, Peritoneal macrophage, reference compounds, 95% confidence limits on next line, read-out: IC50 PGE2
[8] = zymosan stimulation, dose not given
[9] = Mus musculus, Peritoneal macrophage, zymosan stimulation, 0.2 μM

inhibition at 10 µM [1] | inhibition at 10 µM [2] | Structure (SMILES) | inhibition at 0.5 µM [3, 6] | inhibition at 0.5 µM [4, 6] | inhibition at 0.1 µM [3, 6] | inhibition at 0.1 µM [4, 6] | further results
83% | 88% | CCCCCCCC[C@@H]1C[C@@H]1CCCCCCCC(=O)C1=C(O)COC1=O (relative stereo) [Example 19, (Z)-4-Hydroxy-3-(1-oxo-8-(2'-octylcyclopropyl)octanyl)-2(5H)-furanone] | 68.4% | 37.5% |  |  | 
 |  | CCCC[C@@H]1C[C@@H]1CCCCCCCC(=O)C1=C(O)COC1=O (relative stereo) [Example 54, 4-Hydroxy-3-[(Z)-8-(2-butylcyclopropyl)-1-oxooctyl]-2(5H)-furanone] |  |  | 49.5% | 59.3% | 
 |  | CCCCCCCCCCC[C@@H]1C[C@@H]1CCCCC(=O)C1=C(O)COC1=O (relative stereo) [Example 55] | 74.3% | 64.2% | 39.2% | 80.3% | 
 |  | CCCCCC#CCC#CCC#CCC#CCCCC(=O)O [ETYA, reference compound] |  |  |  |  | IC50 [3, 7]: 1260 nM
37.4% | 21% | CCCCCCNC(=O)OCC(CCC(=O)C1=C(O)COC1=O)OC(=O)NCCCCCC (stereo not drawn) [Example 30, Hexylcarbamic acid 5-(2,5-dihydro-4-hydroxy-2-oxo-3-furanyl)-5-oxo-1,2-pentanediyl ester] |  |  |  |  | inhibition at 1 µM [3, 6]: 45.8%; inhibition at 1 µM [4, 6]: 41.5%
80.9% | 18.8% | CCCCCCCC/C=C\CCCCCCCC(=O)OCCCC(=O)C1=C(O)COC1=O [Example 38, (Z)-9-Octadecanoic acid 4-(2,5-dihydro-4-hydroxy-2-oxo-3-furanyl)-4-oxobutanoic ester] |  |  |  |  | inhibition at 1 µM [3, 6]: 75.8%; inhibition at 1 µM [4, 6]: 46.4%; Topical % Inhibition at 200 μg [5]: 23%
96.5% | 91% | CCCCCCCC/C=C\CCCCCCCCNC(=O)OC(CCC(=O)C1=C(O)COC1=O)COC/C=C(\C)CCC=C(C)C (stereo not drawn) [Example 40] |  |  |  |  | IC50 ([3]; Mus musculus, Peritoneal macrophage, zymosan stimulation, read-out: PGE2 zymosan IC50): 800 nM; PGE2 zymosan % Inhibition [3, 8]: 37%; IC50 ([4]; Mus musculus, Peritoneal macrophage, zymosan stimulation, read-out: LTC4 zymosan IC50): 800 nM; LTC4 zymosan % Inhibition [4, 8]: 87%
12% | 13% | O=C(CCCCCCCCCc1ccc(Cl)cc1)C1=C(O)COC1=O [Example 41, 4-Hydroxy-3-[10-(4-chlorophenyl)-1-oxodecyl]-2(5H)-furanone] | 97% | 90% | 29% | 61% | 
6.6% | 22% | O=C(CCCCCCCCCc1ccc(Cl)c(Cl)c1)C1=C(O)COC1=O [Example 42, 4-Hydroxy-3-[10-(3,4-dichlorophenyl)-1-oxodecyl]-2(5H)-furanone] | 97% | 70% | -8% | 58% | 
29.7% | 44.4% | CC(C)(C)c1ccc(CCCCCCCCCC(=O)C2=C(O)COC2=O)cc1 [Example 43, 4-Hydroxy-3-[10-[4-(1,1-dimethylethyl)phenyl]1-oxodecyl]-2(5H)-furanone] | 92% | 96% | 54% | 71% | 
16.1% | 37% | O=C(CCCCCCCCCc1ccc(Br)cc1)C1=C(O)COC1=O [Example 44, 4-Hydroxy-3-[10-(4-bromophenyl)-1-oxodecyl]-2(5H)-furanone] | 88% | 94% | -20% | 58% | 
63% | 55.6% | O=C(CCCCCCCCCc1ccc(C(F)(F)F)cc1)C1=C(O)COC1=O [Example 45, 4-Hydroxy-3[10-(4-trifluoromethyl)phenyl]-2(5H)-furanone] |  |  |  |  | inhibition at 0.2 µM [3, 9]: 45%; inhibition at 0.2 µM [4, 9]: 34.5%
1.7% | 6.7% | O=C(CCCCOc1ccc(Cl)cc1)C1=C(O)CSC1=O [Example 49, 4-Hydroxy-3-[5-(4-chlorophenoxy)-1-oxopentyl]-2(5H)-thiophenone] | -11.8% | -19.7% |  |  | 
 |  | CC(Cc1ccc(O)c(O)c1)C(C)Cc1ccc(O)c(O)c1 (stereo not drawn) [NDGA, reference compound] |  |  |  |  | IC50 [3, 7]: 2150 nM; IC50 ([4]; Mus musculus, Peritoneal macrophage, reference compounds, 95% confidence limits on next line, read-out: IC50 LTC4): […]
